Measurements from publication PMC5218480 (PLoS ONE, 2017).

System: MV-4-11 cells
Experiment: Gene expression microarray analysis (Affymetrix PrimeView) and GSEA
Format: cell-based, human
Design: RFU PODN (11730768_x_at) / Fold change /veh PODN (11730768_x_at) / RFU LINC00158 (11744669_a_at) / Fold change /veh LINC00158 (11744669_a_at) / RFU DUSP10 (11751237_a_at) / Fold change /veh DUSP10 (11751237_a_at) / RFU ID3 (11757404_x_at) / Fold change /veh ID3 (11757404_x_at) / RFU PLEKHG5 (11737974_s_at) / Fold change /veh PLEKHG5 (11737974_s_at) / RFU LRRC4B (11730491_at) / Fold change /veh LRRC4B (11730491_at) / RFU GIMAP4 (11747438_a_at) / Fold change /veh GIMAP4 (11747438_a_at) / RFU KRT8 (11758183_x_at) / Fold change /veh KRT8 (11758183_x_at) / RFU CNN1 (11734310_a_at) / Fold change /veh CNN1 (11734310_a_at) / RFU VPS37D (11726825_at) / Fold change /veh VPS37D (11726825_at) / RFU C10orf10 (11716522_x_at) / Fold change /veh C10orf10 (11716522_x_at) / RFU KIR2DL2 /// KIR2DL4 /// KIR2DL5A /// KIR2DL5B /// KIR2DS1 /// KIR2DS2 /// KIR2DS3 /// KIR2DS4 /// KIR3DL3 /// KIR3DL3 /// KIR3DS1 (11738374_at) / Fold change /veh KIR2DL2 /// KIR2DL4 /// KIR2DL5A /// KIR2DL5B /// KIR2DS1 /// KIR2DS2 /// KIR2DS3 /// KIR2DS4 /// KIR3DL3 /// KIR3DL3 /// KIR3DS1 (11738374_at) / RFU C1QL1 (11718748_at) / Fold change /veh C1QL1 (11718748_at) / RFU TMPRSS4 (11747572_a_at) / Fold change /veh TMPRSS4 (11747572_a_at) / RFU HAMP (11756126_x_at) / Fold change /veh HAMP (11756126_x_at) / RFU RNFT2 (11725882_a_at) / Fold change /veh RNFT2 (11725882_a_at) / RFU NR4A2 (11747474_a_at) / Fold change /veh NR4A2 (11747474_a_at) / RFU ABCC12 (11746883_a_at) / Fold change /veh ABCC12 (11746883_a_at) / RFU TMEM136 (11760407_x_at) / Fold change /veh TMEM136 (11760407_x_at) / RFU CLDN22 /// WWC2 (11732394_at) / Fold change /veh CLDN22 /// WWC2 (11732394_at) / RFU HLA-DPB1 (11760878_x_at) / Fold change /veh HLA-DPB1 (11760878_x_at) / RFU SPINT1 (11716480_a_at) / Fold change /veh SPINT1 (11716480_a_at) / RFU GAP43 (11754022_s_at) / Fold change /veh GAP43 (11754022_s_at) / RFU A4GNT (11735810_at) / Fold change /veh A4GNT (11735810_at) / RFU PRB3 (11715151_x_at) / Fold change /veh PRB3 (11715151_x_at) / RFU TUBB4B (11761932_at) / Fold change /veh TUBB4B (11761932_at) / RFU CAPN14 (11732068_a_at) / Fold change /veh CAPN14 (11732068_a_at) / RFU TMCC2 (11721928_a_at) / Fold change /veh TMCC2 (11721928_a_at) / RFU IRGQ (11745062_a_at) / Fold change /veh IRGQ (11745062_a_at) / RFU FAM174B (11720279_a_at) / Fold change /veh FAM174B (11720279_a_at) / RFU TMPRSS4 (11748680_a_at) / Fold change /veh TMPRSS4 (11748680_a_at) / RFU FAM212B (11763350_a_at) / Fold change /veh FAM212B (11763350_a_at) / RFU PLEKHG5 (11743358_a_at) / Fold change /veh PLEKHG5 (11743358_a_at) / RFU ZSCAN30 (11745921_a_at) / Fold change /veh ZSCAN30 (11745921_a_at) / RFU CMKLR1 (11741424_a_at) / Fold change /veh CMKLR1 (11741424_a_at) / RFU LOC101060620 /// MAPK8IP1 (11723275_at) / Fold change /veh LOC101060620 /// MAPK8IP1 (11723275_at) / RFU SPTSSB (11747773_x_at) / Fold change /veh SPTSSB (11747773_x_at) / RFU PRSS12 (11739890_at) / Fold change /veh PRSS12 (11739890_at) / RFU BIN1 (11741810_x_at) / Fold change /veh BIN1 (11741810_x_at) / RFU WNT11 (11732464_a_at) / Fold change /veh WNT11 (11732464_a_at) / RFU C10orf10 (11716521_a_at) / Fold change /veh C10orf10 (11716521_a_at) / RFU C5orf56 (11738089_at) / Fold change /veh C5orf56 (11738089_at) / RFU CYB561 (11721691_x_at) / Fold change /veh CYB561 (11721691_x_at) / RFU ANKRD19P (11752326_a_at) / Fold change /veh ANKRD19P (11752326_a_at) / RFU OR2T12 /// OR2T33 /// OR2T8 (11738714_s_at) / Fold change /veh OR2T12 /// OR2T33 /// OR2T8 (11738714_s_at) / RFU VCAN (11748164_a_at) / Fold change /veh VCAN (11748164_a_at) / RFU JSRP1 (11732532_at) / Fold change /veh JSRP1 (11732532_at) / RFU KRTAP10-11 (11738290_x_at) / Fold change /veh KRTAP10-11 (11738290_x_at) / RFU MYO3A (11730013_a_at) / Fold change /veh MYO3A (11730013_a_at) / RFU EBF3 (11725865_a_at) / Fold change /veh EBF3 (11725865_a_at) / RFU CAMK2N1 (11719241_x_at) / Fold change /veh CAMK2N1 (11719241_x_at) / RFU C5orf56 (11738088_a_at) / Fold change /veh C5orf56 (11738088_a_at) / RFU OLFML3 (11715873_a_at) / Fold change /veh OLFML3 (11715873_a_at) / RFU LOC100653217 /// NTM (11731650_a_at) / Fold change /veh LOC100653217 /// NTM (11731650_a_at) / RFU MAPK11 (11762145_a_at) / Fold change /veh MAPK11 (11762145_a_at) / RFU FIZ1 (11724087_x_at) / Fold change /veh FIZ1 (11724087_x_at) / RFU OASL (11726364_x_at) / Fold change /veh OASL (11726364_x_at) / RFU SOX15 (11748057_x_at) / Fold change /veh SOX15 (11748057_x_at) / RFU CD79A (11719716_a_at) / Fold change /veh CD79A (11719716_a_at) / RFU HIST1H1D (11736915_at) / Fold change /veh HIST1H1D (11736915_at) / RFU CASKIN2 (11723855_a_at) / Fold change /veh CASKIN2 (11723855_a_at) / RFU LOC730098 (11760151_x_at) / Fold change /veh LOC730098 (11760151_x_at) / RFU OR4N2 (11742367_at) / Fold change /veh OR4N2 (11742367_at) / RFU PRRT2 (11749266_a_at) / Fold change /veh PRRT2 (11749266_a_at) / RFU SNX32 (11753110_a_at) / Fold change /veh SNX32 (11753110_a_at) / RFU CDHR5 (11726645_a_at) / Fold change /veh CDHR5 (11726645_a_at) / RFU RCAN1 (11760418_a_at) / Fold change /veh RCAN1 (11760418_a_at) / RFU FAM167A (11723789_a_at) / Fold change /veh FAM167A (11723789_a_at) / RFU FAM26E (11764081_at) / Fold change /veh FAM26E (11764081_at) / RFU ISYNA1 (11749810_s_at) / Fold change /veh ISYNA1 (11749810_s_at) / RFU ACY1 (11761880_at) / Fold change /veh ACY1 (11761880_at) / RFU 11764098_at / Fold change /veh 11764098_at / RFU SAMD14 (11745864_x_at) / Fold change /veh SAMD14 (11745864_x_at) / RFU NPB (11741838_a_at) / Fold change /veh NPB (11741838_a_at) / RFU TMPRSS6 (11731388_a_at) / Fold change /veh TMPRSS6 (11731388_a_at) / RFU KRTAP10-2 (11738614_at) / Fold change /veh KRTAP10-2 (11738614_at) / RFU ARHGAP8 /// PRR5-ARHGAP8 (11727945_x_at) / Fold change /veh ARHGAP8 /// PRR5-ARHGAP8 (11727945_x_at) / RFU KRTAP5-7 /// NADSYN1 (11734609_at) / Fold change /veh KRTAP5-7 /// NADSYN1 (11734609_at) / RFU RASL12 (11751679_a_at) / Fold change /veh RASL12 (11751679_a_at) / RFU CDKN2B (11736163_a_at) / Fold change /veh CDKN2B (11736163_a_at) / RFU PRF1 (11729649_at) / Fold change /veh PRF1 (11729649_at) / RFU, ZNF638 /// ZNF638-IT1 / Fold change vs veh, ZNF638 /// ZNF638-IT1 / RFU, PANK3 / Fold change vs veh, PANK3 / RFU, SH3YL1 / Fold change vs veh, SH3YL1 / RFU, ZEB2 / Fold change vs veh, ZEB2 / RFU, NRIP1 / Fold change vs veh, NRIP1 / RFU, PTTG1IP / Fold change vs veh, PTTG1IP / RFU, CAPN2 / Fold change vs veh, CAPN2 / RFU, MED14 / Fold change vs veh, MED14 / RFU, SNORA58 / Fold change vs veh, SNORA58 / RFU, C1orf63 / Fold change vs veh, C1orf63 / RFU, LRRFIP1 / Fold change vs veh, LRRFIP1 / RFU, NDUFAF7 / Fold change vs veh, NDUFAF7 / RFU, SLC12A2 / Fold change vs veh, SLC12A2 / RFU, IBTK / Fold change vs veh, IBTK / RFU, ESF1 / Fold change vs veh, ESF1 / Fold change vs veh, TMEM50B / RFU, TAOK1 / Fold change vs veh, TAOK1 / RFU, ACBD3 / Fold change vs veh, ACBD3 / RFU, TMA16 / Fold change vs veh, TMA16 / RFU, RWDD3 / Fold change vs veh, RWDD3 / RFU, BCAT1 / Fold change vs veh, BCAT1 / RFU, EDEM3 / Fold change vs veh, EDEM3 / RFU, TMEM33 / Fold change vs veh, TMEM33 / RFU, WDR75 / Fold change vs veh, WDR75 / RFU, AHCTF1 / Fold change vs veh, AHCTF1 / RFU, TFRC / Fold change vs veh, TFRC / RFU, ZDHHC17 / Fold change vs veh, ZDHHC17 / RFU, NOM1 / Fold change vs veh, NOM1 / RFU, ARL8B / Fold change vs veh, ARL8B / RFU, ZBTB11 / Fold change vs veh, ZBTB11 / RFU, TAMM41 / Fold change vs veh, TAMM41 / RFU, KIAA1704 /// LOC100996395 / Fold change vs veh, KIAA1704 /// LOC100996395 / RFU, ING1 / Fold change vs veh, ING1 / RFU, TRMT61B / Fold change vs veh, TRMT61B / RFU, FUBP3 / Fold change vs veh, FUBP3 / RFU, TP53 / Fold change vs veh, TP53 / RFU, TNKS2 / Fold change vs veh, TNKS2 / RFU, ZFP14 / Fold change vs veh, ZFP14 / RFU, ACTR2 / Fold change vs veh, ACTR2 / RFU, PPP3R1 / Fold change vs veh, PPP3R1 / RFU, PIK3R1 / Fold change vs veh, PIK3R1 / RFU, HNRNPA1 / Fold change vs veh, HNRNPA1 / RFU, RNF170 / Fold change vs veh, RNF170 / RFU, ZNF28 / Fold change vs veh, ZNF28 / RFU, RNGTT / Fold change vs veh, RNGTT / RFU, OGT / Fold change vs veh, OGT / RFU, BRD1 / Fold change vs veh, BRD1 / RFU, MARS / Fold change vs veh, MARS / RFU, ZNF655 / Fold change vs veh, ZNF655 / RFU, FAHD1 / Fold change vs veh, FAHD1 / RFU, BDP1 / Fold change vs veh, BDP1 / RFU, LRRCC1 / Fold change vs veh, LRRCC1 / RFU, ARID1A / Fold change vs veh, ARID1A / RFU, ZNF146 / Fold change vs veh, ZNF146 / RFU, ZNF330 / Fold change vs veh, ZNF330 / RFU, GPN3 / Fold change vs veh, GPN3 / RFU, C9orf123 / Fold change vs veh, C9orf123 / RFU, N4BP2L2 / Fold change vs veh, N4BP2L2 / RFU, ARFIP1 / Fold change vs veh, ARFIP1 / RFU, FAM179B / Fold change vs veh, FAM179B / RFU, BCL10 / Fold change vs veh, BCL10 / RFU, UHRF1BP1L / Fold change vs veh, UHRF1BP1L / RFU, BET1 / Fold change vs veh, BET1 / RFU, CNOT2 / Fold change vs veh, CNOT2 / RFU, ZNF268 / Fold change vs veh, ZNF268 / Fold change vs veh, ZNF507 / RFU, DGCR2 / Fold change vs veh, DGCR2 / RFU, WDSUB1 / Fold change vs veh, WDSUB1 / Fold change vs veh, HSP90B1 /// MIR3652 / RFU, ADSS / Fold change vs veh, ADSS / RFU, GK / Fold change vs veh, GK / RFU, ZNF148 / Fold change vs veh, ZNF148 / RFU, TAF9 / Fold change vs veh, TAF9 / RFU, SLC1A5 / Fold change vs veh, SLC1A5 / RFU, SLMO2 / Fold change vs veh, SLMO2 / RFU, ABCC4 / Fold change vs veh, ABCC4 / RFU, LOC101060439 /// RAP1B / Fold change vs veh, LOC101060439 /// RAP1B / RFU, RFX7 / Fold change vs veh, RFX7 / RFU, GTPBP10 / Fold change vs veh, GTPBP10 / RFU, CNEP1R1 / Fold change vs veh, CNEP1R1 / RFU, BIVM-ERCC5 /// ERCC5 / Fold change vs veh, BIVM-ERCC5 /// ERCC5 / RFU, ILF3 / Fold change vs veh, ILF3 / RFU 11762660_at / Fold change /veh 11762660_at / RFU VCAN (11757783_s_at) / Fold change /veh VCAN (11757783_s_at) / RFU DDX43 (11728927_at) / Fold change /veh DDX43 (11728927_at) / RFU KRT8 (11758188_x_at) / Fold change /veh KRT8 (11758188_x_at) / RFU NKD1 (11759106_at) / Fold change /veh NKD1 (11759106_at) / RFU SRD5A1 (11742802_a_at) / Fold change /veh SRD5A1 (11742802_a_at) / RFU TPSAB1 /// TPSB2 (11721975_s_at) / Fold change /veh TPSAB1 /// TPSB2 (11721975_s_at) / RFU GSTM3 (11746129_a_at) / Fold change /veh GSTM3 (11746129_a_at) / RFU IL23R (11737362_x_at) / Fold change /veh IL23R (11737362_x_at) / RFU TMEM51 (11727254_a_at) / Fold change /veh TMEM51 (11727254_a_at) / RFU PIWIL2 (11732686_x_at) / Fold change /veh PIWIL2 (11732686_x_at) / RFU ORM1 (11744905_x_at) / Fold change /veh ORM1 (11744905_x_at) / RFU CCDC152 (11743942_at) / Fold change /veh CCDC152 (11743942_at) / RFU ECM1 (11717891_a_at) / Fold change /veh ECM1 (11717891_a_at) / RFU IL23R (11748794_a_at) / Fold change /veh IL23R (11748794_a_at) / RFU TNFAIP8L3 (11732012_x_at) / Fold change /veh TNFAIP8L3 (11732012_x_at) / RFU MBOAT4 (11741988_at) / Fold change /veh MBOAT4 (11741988_at) / RFU 11764193_at / Fold change /veh 11764193_at / RFU TMEM53 (11763286_at) / Fold change /veh TMEM53 (11763286_at) / RFU MAGEB2 (11727129_at) / Fold change /veh MAGEB2 (11727129_at) / RFU TMEM200A (11744735_a_at) / Fold change /veh TMEM200A (11744735_a_at) / RFU CCDC152 (11751479_a_at) / Fold change /veh CCDC152 (11751479_a_at) / RFU FAM211A (11726209_a_at) / Fold change /veh FAM211A (11726209_a_at) / RFU RGS16 (11746705_a_at) / Fold change /veh RGS16 (11746705_a_at) / RFU VCAN (11755009_s_at) / Fold change /veh VCAN (11755009_s_at) / RFU RHOB (11743442_s_at) / Fold change /veh RHOB (11743442_s_at) / RFU RGS16 (11720943_a_at) / Fold change /veh RGS16 (11720943_a_at) / RFU RGS16 (11720944_at) / Fold change /veh RGS16 (11720944_at) / RFU, VPS4B / Fold change vs veh, VPS4B / RFU, CREB1 / Fold change vs veh, CREB1 / RFU, DNAJC13 / Fold change vs veh, DNAJC13 / RFU, GNAQ / Fold change vs veh, GNAQ / RFU, CDK5R1 / Fold change vs veh, CDK5R1 / RFU, ZRANB3 / Fold change vs veh, ZRANB3 / RFU, CUL4A / Fold change vs veh, CUL4A / RFU, CCNY / Fold change vs veh, CCNY / RFU, UFL1 / Fold change vs veh, UFL1 / RFU, COG3 / Fold change vs veh, COG3 / RFU, DIAPH2 / Fold change vs veh, DIAPH2 / RFU, SKA2 / Fold change vs veh, SKA2 / RFU, AFF3 / Fold change vs veh, AFF3 / RFU, LMF1 / Fold change vs veh, LMF1 / RFU, IPO11 / Fold change vs veh, IPO11 / RFU, DFFB / Fold change vs veh, DFFB / RFU, FOXP1 / Fold change vs veh, FOXP1 / RFU, CARD8 / Fold change vs veh, CARD8 / RFU, STRN3 / Fold change vs veh, STRN3 / RFU, ADK / Fold change vs veh, ADK / RFU, RASSF2 / Fold change vs veh, RASSF2 / RFU, WIPF1 / Fold change vs veh, WIPF1 / RFU, LARP1B / Fold change vs veh, LARP1B / RFU, RASA1 / Fold change vs veh, RASA1 / RFU, RB1 / Fold change vs veh, RB1 / RFU, PPFIA1 / Fold change vs veh, PPFIA1 / RFU, MAT2A / Fold change vs veh, MAT2A / RFU, CCT5 / Fold change vs veh, CCT5 / RFU, WDR92 / Fold change vs veh, WDR92 / RFU, CUX1 / Fold change vs veh, CUX1 / RFU, TTC7A / Fold change vs veh, TTC7A / RFU, TMEM135 / Fold change vs veh, TMEM135 / RFU, DEPTOR / Fold change vs veh, DEPTOR / RFU, CPM / Fold change vs veh, CPM / RFU, DNAJB6 / Fold change vs veh, DNAJB6 / RFU, CACNA2D3 / Fold change vs veh, CACNA2D3 / RFU, DTX4 / Fold change vs veh, DTX4 / RFU, TFCP2 / Fold change vs veh, TFCP2 / RFU, GMCL1 /// GMCL1P1 / Fold change vs veh, GMCL1 /// GMCL1P1 / RFU, AEBP2 / Fold change vs veh, AEBP2 / RFU, SNHG1 /// SNORD22 /// SNORD25 /// SNORD26 /// SNORD27 /// SNORD28 /// SNORD29 /// SNORD31 / Fold change vs veh, SNHG1 /// SNORD22 /// SNORD25 /// SNORD26 /// SNORD27 /// SNORD28 /// SNORD29 /// SNORD31 / Fold change (Aza/veh), C12orf56 (ProbeSet 11735607_a_at) / Fold change (ACY-1035/veh), C12orf56 (ProbeSet 11735607_a_at) / Fold change (Aza/veh), FGFR1OP (ProbeSet 11751329_s_at) / Fold change (ACY-1035/veh), FGFR1OP (ProbeSet 11751329_s_at) / Fold change (Aza/veh), VPS36 (ProbeSet 11739960_a_at) / Fold change (ACY-1035/veh), VPS36 (ProbeSet 11739960_a_at) / RFU SYPL1 (11715823_x_at) / Fold change /veh SYPL1 (11715823_x_at) / RFU IGFBP7 (11715501_s_at) / Fold change /veh IGFBP7 (11715501_s_at) / RFU REEP3 (11722064_at) / Fold change /veh REEP3 (11722064_at) / RFU IGLL1 (11728026_x_at) / Fold change /veh IGLL1 (11728026_x_at): dose or concentration left out as unconfirmed
Conditions: ProbeSet 11722022_s_at; LIST D

## Nc1ncn([C@@H]2O[C@H](CO)[C@@H](O)[C@H]2O)c(=O)n1 [azacitidine]
  RFU, CDK5R1: 40.46 RFU
